# Results: paper PMC3769965 (Biochemistry, 2013)
# Biological target: Eis_Msm (Mycolicibacterium smegmatis, UniProt A0QY29)
# Assay: DTNB initial rate
# Type: biochemical
# Details: AcCoA, 50 mM Tris-HCl pH 8.0
structure (smiles),measurement,value
"NC[C@@H]1O[C@H](O[C@H]2[C@@H](O)[C@H](O[C@@H]3[C@@H](O)[C@H](N)C[C@H](N)[C@H]3O[C@H]3O[C@H](CO)[C@@H](O)[C@H](O)[C@H]3N)O[C@@H]2CO)[C@H](N)[C@@H](O)[C@@H]1O [PAR, paromomycin]",DTNB initial rate (CoA release); LCMS of tri-acetylation,"with Eis_Mtb, Eis_Msm, and all Eis_Mtb-mutants, PAR was always tri-acetylated"
